Common to all, as to format: functional
The test system of one experiment is MDA-MB-231. Briefly: Anticancer activity against human MDA-MB-231 cells after 48 hrs by SRB assay. The settings on record: MDA-MB-231, 48 h.
Experiment [1] in a line: Anticancer activity against human PANC1 cells after 48 hrs by SRB assay. The settings on record: PANC-1, 48 h. A general note: In SRB staining, fixed cells bind dye roughly in proportion to their protein.
In a further experiment the test system is A549. The experiment in a line: Anticancer activity against human A549 cells after 48 hrs by SRB assay. The settings on record: A549, 48 h.
The next experiment has as its system HeLa. The experiment in a line: Anticancer activity against human HeLa cells after 48 hrs by SRB assay.
Experiment [2] has as its system Staphylococcus aureus. The experiment in a line: Antibacterial activity against Staphylococcus aureus after 24 hrs by agar diffusion assay. A general note: Agar diffusion results depend on both activity and mobility in agar.
In experiment [3] the test system is Bacillus licheniformis. The experiment in a line: Antibacterial activity against Bacillus licheniformis after 24 hrs by agar diffusion assay.
Experiment [4] has as its system Streptococcus pneumoniae. The experiment in a line: Antibacterial activity against Streptococcus pneumoniae after 24 hrs by agar diffusion assay.
Experiment [5] concerns Pseudomonas aeruginosa. The experiment in a line: Antibacterial activity against Pseudomonas aeruginosa after 24 hrs by agar diffusion assay.
For experiment [6], the system named is Klebsiella pneumoniae. Briefly: Antibacterial activity against Klebsiella pneumoniae after 24 hrs by agar diffusion assay.
The subject of experiment [7] is Escherichia coli. The experiment in a line: Antibacterial activity against Escherichia coli after 24 hrs by agar diffusion assay.
The subject of experiment [8] is Escherichia coli. Briefly: Antibacterial activity against Escherichia coli after 24 to 48 hrs.
The subject of experiment [9] is Streptococcus pneumoniae. Briefly: Antibacterial activity against Streptococcus pneumoniae after 24 to 48 hrs.
Experiment [10] concerns Klebsiella pneumoniae. Briefly: Antibacterial activity against Klebsiella pneumoniae after 24 to 48 hrs.
Experiment [11] relates to Pseudomonas aeruginosa. The experiment in a line: Antibacterial activity against Pseudomonas aeruginosa after 24 to 48 hrs.
For experiment [12], the system named is Staphylococcus aureus. Briefly: Antibacterial activity against Staphylococcus aureus after 24 to 48 hrs.
Experiment [13] has as its system Bacillus licheniformis. Briefly: Antibacterial activity against Bacillus licheniformis after 24 to 48 hrs.

The results in this text go back to ChEMBL document CHEMBL3797087, “Synthesis of novel triazole/isoxazole functionalized 7-(trifluoromethyl)pyrido[2,3-d]pyrimidine derivatives as promising anticancer and antibacterial agents” (2016).

As a reminder, the GI50 is the concentration giving 50% growth inhibition. Usually MIC stands for the least concentration at which growth counts as inhibited.

≈ marks a conversion by molar mass, not a printed value.

As to `CCc1nc2nc(C(F)(F)F)ccc2c(=O)n1Cc1cn(CCC(F)(F)C(F)(F)C(F)(F)C(F)(F)C(F)(F)C(F)(F)F)nn1`, the GI50 in the experiment with MDA-MB-231 was found to be 2.83 µM; in [1], 0.73 µM; in the experiment on A549, 0.03 µM; in the experiment with HeLa it was 0.93 µM.
For `O=c1c2ccc(C(F)(F)F)nc2nc(-c2ccccc2)n1Cc1cn(-c2ccc([N+](=O)[O-])cc2)nn1`, in that order: 1.24 µM, 2.55 µM, 0.77 µM and 0.86 µM.
For the compound `CCCCCCCCCCn1cc(COc2nc(-c3ccccc3)nc3nc(C(F)(F)F)ccc23)nn1`, the concentration for 50% growth inhibition (GI50) is 1.05 µM in the experiment with MDA-MB-231, 0.49 µM in [1], 2.31 µM with A549 and 1.04 µM with HeLa. In addition, the “inhibition zone (IZ)” value with Staphylococcus aureus [2] turned out to be 10 mm; in the experiment with Bacillus licheniformis [3], 8 mm; with Streptococcus pneumoniae [4], 16 mm.
As to `CCc1nc2nc(C(F)(F)F)ccc2c(=O)n1Cc1cn(CC(=O)Nc2ccccc2)nn1`, the GI50 in the experiment on MDA-MB-231 was 1.7 µM; in [1], 0.32 µM; in the experiment on A549, 5.26 µM; with HeLa, 0.86 µM.
Consider `CCCCCCCCCCn1cc(Cn2c(-c3ccco3)nc3nc(C(F)(F)F)ccc3c2=O)nn1`, for which the GI50 in the experiment with MDA-MB-231 came out at 1.1 µM; in [1] it was 3.18 µM; in the experiment on A549 it was 0.2 µM; with HeLa it was 0.87 µM.
For `FC(F)(F)c1ccc2c(OCc3cn(CCC(F)(F)C(F)(F)C(F)(F)C(F)(F)C(F)(F)C(F)(F)F)nn3)nc(-c3ccccc3)nc2n1` the same measures were 0.52 µM, 2.99 µM, 1.91 µM and 1.2 µM.
For `O=c1c2ccc(C(F)(F)F)nc2ncn1Cc1cn(-c2ccc([N+](=O)[O-])cc2)nn1` the same measures were 0.14 µM, 1.89 µM, 0.3 µM and 0.89 µM.
On to `O=C(Cn1cc(COc2nc(-c3ccccc3)nc3nc(C(F)(F)F)ccc23)nn1)Nc1ccccc1`, for which the GI50 in the experiment with MDA-MB-231 turned out to be 0.65 µM; in experiment [1], 4.5 µM; in the experiment with A549, 0.14 µM; in the experiment with HeLa, 0.89 µM.
As for `O=c1c2ccc(C(F)(F)F)nc2ncn1Cc1cc(-c2ccc(Br)cc2)no1`, the GI50 in the experiment with MDA-MB-231 stood at 0.71 µM; in experiment [1], 1.16 µM; in the experiment on A549 it was 3.81 µM; in the experiment with HeLa, 1.24 µM.
In the case of `CCCCCCCCn1cc(Cn2c(CC)nc3nc(C(F)(F)F)ccc3c2=O)nn1`, the “inhibition zone (IZ)” value was 7 mm in the experiment with Pseudomonas aeruginosa [5]; 9 mm with Staphylococcus aureus [2]; 8 mm in the experiment on Bacillus licheniformis [3]; 7 mm with Klebsiella pneumoniae [6]; 7 mm in the experiment with Escherichia coli [7]; 6 mm in the experiment with Streptococcus pneumoniae [4]. Also, the GI50 with MDA-MB-231 was determined as 1.34 µM; in experiment [1] it was 3.28 µM; with A549 it was 2.87 µM; in the experiment on HeLa, 1.27 µM.
Regarding `O=c1c2ccc(C(F)(F)F)nc2ncn1Cc1cc(-c2ccc(Cl)cc2)no1`, the GI50 in the experiment on MDA-MB-231 is 0.87 µM; in experiment [1] it was 7.08 µM; in the experiment with A549 it was 1.09 µM; in the experiment with HeLa it was 0.84 µM.
For `O=c1c2ccc(C(F)(F)F)nc2nc(-c2ccccc2)n1Cc1cn(CCC(F)(F)C(F)(F)C(F)(F)C(F)(F)C(F)(F)C(F)(F)F)nn1`, in that order: 9.89 µM, 2.95 µM, 0.52 µM and 0.87 µM.
For `O=c1c2ccc(C(F)(F)F)nc2nc(-c2ccccc2)n1Cc1cc(-c2cccc3ccccc23)no1` the same measures were 1.01 µM, 0.14 µM, 3.14 µM and 0.91 µM.
For `COc1cc(-n2cc(COc3nc(-c4ccccc4)nc4nc(C(F)(F)F)ccc34)nn2)cc(OC)c1OC`, in that order: 0.24 µM, 0.82 µM, 4.05 µM and 0.89 µM.
As for `CCCCCCCCCCn1cc(Cn2c(CC)nc3nc(C(F)(F)F)ccc3c2=O)nn1`, the “inhibition zone (IZ)” value in the experiment with Pseudomonas aeruginosa [5] came to 16 mm; in the experiment on Staphylococcus aureus [2], 15 mm; with Bacillus licheniformis [3], 21 mm; in the experiment on Klebsiella pneumoniae [6], 19 mm; in the experiment on Escherichia coli [7], 25 mm; with Streptococcus pneumoniae [4], 28 mm. In addition, the GI50 in the experiment with MDA-MB-231 was 2.21 µM; in experiment [1] it was 0.02 µM; in the experiment on A549, 0.86 µM; with HeLa it was 0.81 µM. The MIC amounted to 25 µg/mL (≈ 53.8 µM) with Escherichia coli [8]; 12.5 µg/mL (≈ 26.9 µM) with Streptococcus pneumoniae [9]; 25 µg/mL (≈ 53.8 µM) with Klebsiella pneumoniae [10]; 12.5 µg/mL (≈ 26.9 µM) against Pseudomonas aeruginosa [11]; 12.5 µg/mL (≈ 26.9 µM) with Staphylococcus aureus [12]; 12.5 µg/mL (≈ 26.9 µM) with Bacillus licheniformis [13].
With `CCCCCCCCn1cc(COc2nc(-c3ccccc3)nc3nc(C(F)(F)F)ccc23)nn1`, the GI50 in the experiment on MDA-MB-231 was 0.57 µM; in [1] it was 2.66 µM; in the experiment with A549, 5.33 µM; in the experiment with HeLa, 0.95 µM. Besides, the “inhibition zone (IZ)” value in the experiment on Staphylococcus aureus [2] came out at 22 mm; in the experiment on Bacillus licheniformis [3], 21 mm; in the experiment with Escherichia coli [7] it was 8 mm; in the experiment on Streptococcus pneumoniae [4] it was 26 mm. The MIC in the experiment with Streptococcus pneumoniae [9] came to 12.5 µg/mL (≈ 25.8 µM); in the experiment with Staphylococcus aureus [12], 12.5 µg/mL (≈ 25.8 µM); against Bacillus licheniformis [13], 25 µg/mL (≈ 51.6 µM).
With `O=C(O)c1cn(C2CC2)c2cc(N3CCNCC3)c(F)cc2c1=O` [CIPROFLOXACIN], the “inhibition zone (IZ)” value in the experiment with Pseudomonas aeruginosa [5] is listed as 25 mm; in the experiment on Staphylococcus aureus [2], 25 mm; with Bacillus licheniformis [3], 24 mm; with Klebsiella pneumoniae [6], 22 mm; in the experiment on Streptococcus pneumoniae [4], 23 mm. The MIC against Escherichia coli [8], in the experiment with Streptococcus pneumoniae [9], with Klebsiella pneumoniae [10], against Staphylococcus aureus [12] and against Bacillus licheniformis [13] was 12.5 µg/mL (≈ 37.7 µM) each time.
In the case of `COC(=O)Nc1nc2cc(C(=O)c3cccs3)ccc2[nH]1` [NOCODAZOLE], the GI50 in the experiment on MDA-MB-231 worked out at 0.042 µM; in experiment [1] it was 0.029 µM; in the experiment with A549, 0.08 µM; in the experiment on HeLa it was 0.063 µM.
In the case of `CO[C@H]1/C=C/O[C@@]2(C)Oc3c(C)c(O)c4c(O)c(c(/C=N/N5CCN(C)CC5)c(O)c4c3C2=O)NC(=O)/C(C)=C\C=C\[C@H](C)[C@H](O)[C@@H](C)[C@@H](O)[C@@H](C)[C@H](OC(C)=O)[C@@H]1C` [RIFAMPIN], the “inhibition zone (IZ)” value was determined as 29 mm in the experiment with Pseudomonas aeruginosa [5]; 25 mm with Staphylococcus aureus [2]; 24 mm in the experiment with Bacillus licheniformis [3]; 27 mm in the experiment on Klebsiella pneumoniae [6]; 27 mm in the experiment with Escherichia coli [7]; 25 mm with Streptococcus pneumoniae [4].
